For data set [1], the target named is T1, Tryptase beta-1 (Homo sapiens, UniProt Q15661). As to the kind of experiment: In vitro inhibitory activity against tryptase.
Data set [2] in a line: Bioavailability in rat using combiPK (dose 1 mg/kg i.v.). In kind it is ADME, organism-based. To be noted: in vivo, iv.
Data set [3] in a line: Bioavailability using combiPK assay in rats at a dose of 2 mg/kg administered orally. In kind it is ADME, organism-based. To be noted: rat, in vivo, po, read-out: Bioavailabiility.
A short description of data set [4]: Bioavailability in rat (combiPK assay) (dose 2 mg/kg p.o.). In kind it is ADME, organism-based. To be noted: in vivo, po.
The nature of data set [5]: Bioavailability in rat using combiPK assay (dose 1 mg/kg i.v.). The settings on record: in vivo, iv. In kind it is ADME, organism-based.
Data set [6] is described as follows: Bioavailability using combiPK assay in rats at a dose of 1 mg/kg administered intravenously. In kind it is ADME, organism-based. The settings on record: rat, in vivo, iv, read-out: Bioavailabiility.
The nature of data set [7]: Bioavailability in rat using combiPK (dose of 2 mg/kg p.o.). In kind it is ADME, organism-based. To be noted: in vivo, po.
The target of data set [8] is T1, Tryptase beta-1. As to the kind of experiment: Inhibitory concentration against alpha tryptase was determined.
A short description of data set [9]: Inhibitory concentration against Factor Xa was determined.
Data set [10] is described as follows: Inhibitory concentration against Thrombin was determined.
Data set [11] in a line: Inhibitory concentration against Trypsin was determined.
Data set [12] is described as follows: Inhibitory concentration against Chymase was determined.
Data set [13] deals with T1, Tryptase beta-1. Briefly: Inhibition concentration against beta tryptase was determined.

Where only a bound is given, the exact number is not on record here.

T1 sequence (Q15661 whole entry): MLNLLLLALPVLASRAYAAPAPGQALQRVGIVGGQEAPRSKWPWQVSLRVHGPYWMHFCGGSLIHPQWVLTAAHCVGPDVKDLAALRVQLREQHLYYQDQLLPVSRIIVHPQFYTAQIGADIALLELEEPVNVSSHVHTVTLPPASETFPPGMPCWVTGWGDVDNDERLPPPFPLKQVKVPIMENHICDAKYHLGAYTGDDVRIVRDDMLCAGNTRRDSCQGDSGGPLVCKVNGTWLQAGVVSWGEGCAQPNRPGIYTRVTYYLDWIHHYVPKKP

Consider `CC(C)n1cc(C(=O)N2CCC(c3cccc(CN)c3)CC2)c2ccccc21`, for which the Ki – broadly, the equilibrium dissociation constant of an inhibitor or competing ligand from its target – on Tryptase beta-1 [1] was found to be 0.31 µM.
At Tryptase beta-1 [1], `CS(=O)(=O)n1cc(C(=O)N2CCC(c3cccc(CN)c3)CC2)c2ccccc21` yielded an inhibitory constant (Ki) of 0.162 µM.
The same measure, in the same setting: then `NCc1cccc(C2CCN(C(=O)c3cn(-c4nccs4)c4ccccc34)CC2)c1`, with 0.373 µM; and `NCc1cccc(C2CCN(C(=O)c3cn(CC4CC4)c4ccccc34)CC2)c1`, with 0.141 µM.
As for `NCc1cccc(C2CCN(C(=O)c3c[nH]c4c(F)cccc34)CC2)c1`, the Ki on Tryptase beta-1 [1] was determined as 0.368 µM.
On to `COCCn1cc(C(=O)N2CCC(c3cccc(CN)c3)CC2)c2ccccc21`, for which the Ki on Tryptase beta-1 [1] was determined as 0.057 µM.
With `NCc1cccc(C2CCN(C(=O)c3cn(C(=O)c4cccs4)c4ccccc34)CC2)c1`, at Tryptase beta-1 [1], affinity was put at a Ki of 0.246 µM.
On the same count and under the same terms, then `CC(=O)n1cc(C(=O)N2CCC(c3cccc(CN)c3)CC2)c2ccccc21`, with 0.24 µM.
As for `NCc1cccc(C2CCN(C(=O)c3c[nH]c4ccccc34)CC2)c1.O=C(O)C(F)(F)F`, the bioavailability in data set [2] and in data set [3] was 22% in each case. On Tryptase beta-1 [1], this molecule yielded a Ki of 0.29 µM.
Molecule `CCCCCCn1cc(C(=O)N2CCC(c3cccc(CN)c3)CC2)c2ccccc21` yielded a Ki on Tryptase beta-1 [1] of 0.125 µM.
On Tryptase beta-1 [1], `NCc1cccc(C2CCN(C(=O)c3cn(CC4CCCCC4)c4ccccc34)CC2)c1` returned a Ki of 0.497 µM.
Turning to `CCn1cc(C(=O)N2CCC(c3cccc(CN)c3)CC2)c2cccc(C)c21.O=C(O)C(F)(F)F`, on Tryptase beta-1 [1], the affinity, expressed as Ki, was 0.041 µM. The bioavailability in data set [4] and in data set [5] was 26% each time.
Regarding `Cc1cccc2c(C(=O)N3CCC(c4cccc(CN)c4)CC3)c[nH]c12.O=C(O)C(F)(F)F`, the bioavailability in data set [6] and in data set [7] was 19% throughout. The molecule also gave an inhibitory constant (Ki) at Tryptase beta-1 [1] of 0.061 µM.
`Cn1cc(C(=O)N2CCC(c3cccc(CN)c3)CC2)c2ccccc21` gave a Ki at Tryptase beta-1 [1] of 0.155 µM.
Take `CCCCn1cc(C(=O)N2CCC(c3cccc(CN)c3)CC2)c2cccc(C)c21.O=C(O)C(F)(F)F`: the half-maximal inhibitory concentration (IC50) (in general, the point on the concentration scale where inhibition reaches its midpoint) at Tryptase beta-1 [8] is 3.69 µM; in data set [9], more than 10 µM; in data set [10], more than 10 µM; in data set [11], more than 10 µM; in data set [12], more than 10 µM; at Tryptase beta-1 [13], 0.068 µM. Affinity on Tryptase beta-1 [1] was put at a Ki of 0.068 µM. For the same molecule, the bioavailability in [5] is 33%.
Molecule `Cc1ccc2[nH]cc(C(=O)N3CCC(c4cccc(CN)c4)CC3)c2c1` yielded a Ki at Tryptase beta-1 [1] of 0.101 µM.
The same measure, in the same setting: then `Cc1cccc2[nH]cc(C(=O)N3CCC(c4cccc(CN)c4)CC3)c12`, with more than 2 µM; and `NCc1cccc(C2CCN(C(=O)c3cn(-c4cccnc4)c4ccccc34)CC2)c1`, with 0.197 µM.
`CCCn1cc(C(=O)N2CCC(c3cccc(CN)c3)CC2)c2cccc(C)c21` yielded a Ki at Tryptase beta-1 [1] of 0.041 µM.
In turn, `CCn1cc(C(=O)N2CCC(c3cccc(CN)c3)CC2)c2ccccc21.O=C(O)C(F)(F)F` yielded a Ki on Tryptase beta-1 [1] of 0.124 µM. For the same molecule, the bioavailability in data set [4] and in [5] was 11% in each case.
As to `CCCn1cc(C(=O)N2CCC(c3cccc(CN)c3)CC2)c2ccccc21`, the Ki on Tryptase beta-1 [1] stood at 0.185 µM.
In the case of `CC(C)Cn1cc(C(=O)N2CCC(c3cccc(CN)c3)CC2)c2ccccc21`, at Tryptase beta-1 [1], the affinity corresponds to a Ki of 0.116 µM.
On Tryptase beta-1 [1], `COCCn1cc(C(=O)N2CCC(c3cccc(CN)c3)CC2)c2cccc(C)c21` came in with a Ki of 0.032 µM.
Take `NCc1cccc(C2CCN(C(=O)c3cn(S(=O)(=O)c4ccccc4)c4ccccc34)CC2)c1.O=C(O)C(F)(F)F`: the bioavailability in data set [2] and in data set [7] was 17% in each case. The molecule also showed a Ki on Tryptase beta-1 [1] of 0.128 µM.
`CCCCn1cc(C(=O)N2CCC(c3cccc(CN)c3)CC2)c2ccccc21.O=C(O)C(F)(F)F`: the affinity on Tryptase beta-1 [1] corresponds to a Ki of 0.049 µM. The bioavailability in data set [4] and in data set [5] was 9.3% each time.
On to `Cc1ccc2c(C(=O)N3CCC(c4cccc(CN)c4)CC3)c[nH]c2c1`, for which the Ki on Tryptase beta-1 [1] is more than 2 µM.
